Source: US20140315933A1, “CHEMICAL COMPOUNDS” (Pfizer Limited, priority 2013, published 2014)
Structures can show the parent of a compound that is named as a salt.

target: T1, URAT-1 transporter (Homo sapiens, UniProt Q96S37); experiment: URAT-1 inhibitor activity: [14C]-uric acid uptake into CHO-URAT1(L)GFP#8 (CHO#8) cells, scintillation proximity; assay type: cell-based
T1 construct: expressed in transfected cells
Outline: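 Scintillation proximity read-out of 30 nM (final) [14C]-uric acid uptake over three hours at room temperature in chloride-free HEPES buffer pH 7.4. Compounds, 0–10 μM final with 0.25% DMSO, were added 15 minutes before substrate; cells were a clonal CHO line with human URAT1(L)-eGFP, preincubated 1 hour in chloride buffer.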

T1 sequence (Q96S37 with tags, fused parts or gaps): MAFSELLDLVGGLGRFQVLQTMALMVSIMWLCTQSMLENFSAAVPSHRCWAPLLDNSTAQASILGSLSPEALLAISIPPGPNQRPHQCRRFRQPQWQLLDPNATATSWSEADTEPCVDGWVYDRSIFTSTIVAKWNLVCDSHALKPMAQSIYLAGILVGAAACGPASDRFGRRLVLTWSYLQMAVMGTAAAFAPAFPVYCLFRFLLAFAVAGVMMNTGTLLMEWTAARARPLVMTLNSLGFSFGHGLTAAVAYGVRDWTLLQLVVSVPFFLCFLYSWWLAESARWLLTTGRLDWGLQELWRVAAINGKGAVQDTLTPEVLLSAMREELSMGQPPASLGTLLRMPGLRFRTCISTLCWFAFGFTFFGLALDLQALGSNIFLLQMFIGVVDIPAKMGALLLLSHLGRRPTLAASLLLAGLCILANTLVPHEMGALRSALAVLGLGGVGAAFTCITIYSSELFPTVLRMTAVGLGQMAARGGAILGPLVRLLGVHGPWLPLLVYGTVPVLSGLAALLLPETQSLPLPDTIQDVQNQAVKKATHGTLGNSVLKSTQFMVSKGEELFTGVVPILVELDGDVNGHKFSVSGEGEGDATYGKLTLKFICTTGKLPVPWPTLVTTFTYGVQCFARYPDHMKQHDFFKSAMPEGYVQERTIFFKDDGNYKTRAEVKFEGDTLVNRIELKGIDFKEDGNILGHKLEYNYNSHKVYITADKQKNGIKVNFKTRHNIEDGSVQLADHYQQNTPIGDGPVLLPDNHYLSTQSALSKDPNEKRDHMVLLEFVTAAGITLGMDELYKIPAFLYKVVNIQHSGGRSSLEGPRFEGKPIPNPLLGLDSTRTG

Compound	IC50 [nM]
COc1cc(F)cc(Oc2ccc(S(=O)(=O)Nc3ncc(F)s3)cc2C#N)c1 [Example 122, 3-cyano-4-(3-fluoro-5-methoxyphenoxy)-N-(5-fluoro-1,3-thiazol-2-yl)benzenesulfonamide]	581
Cc1ccc(F)c(Oc2ccc(S(=O)(=O)Nc3ncc(F)s3)cc2C#N)c1F [Example 123, 3-cyano-4-(2,6-difluoro-3-methylphenoxy)-N-(5-fluoro-1,3-thiazol-2-yl)benzenesulfonamide]	1250
Cc1cccc(Cl)c1Oc1ccc(S(=O)(=O)Nc2ncc(F)s2)cc1C#N [Example 127, 4-(2-chloro-6-methylphenoxy)-3-cyano-N-(5-fluoro-1,3-thiazol-2-yl)benzenesulfonamide]	2290
CCc1cc(F)ccc1Oc1ccc(S(=O)(=O)Nc2ncc(F)s2)cc1C#N [Example 131, 3-cyano-4-(2-ethyl-4-fluorophenoxy)-N-(5-fluoro-1,3-thiazol-2-yl)benzenesulfonamide]	297
N#Cc1cccc(Oc2ccc(S(=O)(=O)Nc3ncc(F)s3)cc2C#N)c1 [Example 132, 3-cyano-4-(3-cyanophenoxy)-N-(5-fluoro-1,3-thiazol-2-yl)benzenesulfonamide]	2600
N#Cc1cc(S(=O)(=O)Nc2ncc(F)s2)ccc1Oc1cccc(C(F)(F)F)c1 [Example 133, 3-cyano-N-(5-fluoro-1,3-thiazol-2-yl)-4-[3-(trifluoromethyl)phenoxy]benzenesulfonamide]	1580
N#Cc1cc(S(=O)(=O)Nc2ncc(F)s2)ccc1Oc1cc(C(F)(F)F)ccc1F [Example 134, 3-cyano-N-(5-fluoro-1,3-thiazol-2-yl)-4-[2-fluoro-5-(trifluoromethyl)phenoxy]benzenesulfonamide]	718
CC(C)(O)c1cccc(Oc2ccc(S(=O)(=O)Nc3ncc(F)s3)cc2C#N)c1 [Example 135, 3-cyano-N-(5-fluoro-1,3-thiazol-2-yl)-4-[3-(2-hydroxypropan-2-yl)phenoxy]benzenesulfonamide]	1730
CC(C)(C)c1cccc(Oc2ccc(S(=O)(=O)Nc3ncc(F)s3)cc2C#N)c1 [Example 137, 4-(3-tert-butylphenoxy)-3-cyano-N-(5-fluoro-1,3-thiazol-2-yl)benzenesulfonamide]	> 8950
N#Cc1cc(S(=O)(=O)Nc2ncc(F)s2)ccc1Oc1cc(C(F)(F)F)cc(C(F)(F)F)c1 [Example 138, 4-[3,5-bis(trifluoromethyl)phenoxy]-3-cyano-N-(5-fluoro-1,3-thiazol-2-yl)benzenesulfonamide]	3470
N#Cc1cc(S(=O)(=O)Nc2ncc(F)s2)ccc1Oc1cc(F)cc(C(F)(F)F)c1 [Example 139, 3-cyano-N-(5-fluoro-1,3-thiazol-2-yl)-4-[3-fluoro-5-(trifluoromethyl)phenoxy]benzenesulfonamide]	3380
N#Cc1cc(S(=O)(=O)Nc2ncc(F)s2)ccc1Oc1ccc(C#N)c(C(F)(F)F)c1 [Example 140, 3-cyano-4-[4-cyano-3-(trifluoromethyl)phenoxy]-N-(5-fluoro-1,3-thiazol-2-yl)benzenesulfonamide]	> 7300
CCc1cc(Oc2ccc(S(=O)(=O)Nc3ncc(F)s3)cc2C#N)ccc1Cl [Example 142, 4-(4-chloro-3-ethylphenoxy)-3-cyano-N-(5-fluoro-1,3-thiazol-2-yl)benzenesulfonamide]	540
N#Cc1cc(S(=O)(=O)Nc2ncc(F)s2)ccc1Oc1ccc(F)c(C(F)(F)F)c1 [Example 143, 3-cyano-N-(5-fluoro-1,3-thiazol-2-yl)-4-[4-fluoro-3-(trifluoromethyl)phenoxy]benzenesulfonamide]	566
N#Cc1cc(S(=O)(=O)Nc2ncc(F)s2)ccc1Oc1ccc(CCO)cc1I [Example 145, 3-cyano-N-(5-fluoro-1,3-thiazol-2-yl)-4-[4-(2-hydroxyethyl)-2-iodophenoxy]benzene-sulfonamide]	803
N#Cc1cc(S(=O)(=O)Nc2ncc(F)s2)ccc1Oc1ccc(CCO)cc1 [Example 146, 3-cyano-N-(5-fluoro-1,3-thiazol-2-yl)-4-[4-(2-hydroxyethyl)phenoxy]benzenesulfonamide]	> 10000
N#Cc1cc(S(=O)(=O)Nc2ncc(F)s2)ccc1Oc1ccc(CCCO)cc1 [Example 147, 3-cyano-N-(5-fluoro-1,3-thiazol-2-yl)-4-[4-(3-hydroxypropyl)phenoxy]benzenesulfonamide]	> 10000

The next lines start with the values.

IC50 [nM]	Compound
1040	N#Cc1cc(S(=O)(=O)Nc2ncc(F)s2)ccc1Oc1ccc(F)c(F)c1F [Example 121, 3-cyano-N-(5-fluoro-1,3-thiazol-2-yl)-4-(2,3,4-trifluorophenoxy)benzenesulfonamide]
> 6360	Cc1ccc(Oc2ccc(S(=O)(=O)Nc3ncc(F)s3)cc2C#N)c(Cl)c1 [Example 124, 4-(2-chloro-4-methylphenoxy)-3-cyano-N-(5-fluoro-1,3-thiazol-2-yl)benzenesulfonamide]
551	N#Cc1cc(S(=O)(=O)Nc2ncc(F)s2)ccc1Oc1c(F)cccc1Cl [Example 125, 4-(2-chloro-6-fluorophenoxy)-3-cyano-N-(5-fluoro-1,3-thiazol-2-yl)benzenesulfonamide]
699	N#Cc1cc(S(=O)(=O)Nc2ncc(F)s2)ccc1Oc1cc(F)cc(Cl)c1 [Example 126, 4-(3-chloro-5-fluorophenoxy)-3-cyano-N-(5-fluoro-1,3-thiazol-2-yl)benzenesulfonamide]
1190	Cc1c(Oc2ccc(S(=O)(=O)Nc3ncc(F)s3)cc2C#N)ccc(F)c1F [Example 128, 3-cyano-4-(3,4-difluoro-2-(methylphenoxy)-N-5-fluoro-1,3-thiazol-2-yl)benzenesulfonamide]
480	Cc1ccc(Cl)cc1Oc1ccc(S(=O)(=O)Nc2ncc(F)s2)cc1C#N [Example 129, 4-(5-chloro-2-methylphenoxy)-3-cyano-N-(5-fluoro-1,3-thiazol-2-yl)benzenesulfonamide]
414	N#Cc1cc(S(=O)(=O)Nc2ncc(F)s2)ccc1Oc1ccc(F)cc1Cl [Example 130, 4-(2-chloro-4-fluorophenoxy)-3-cyano-N-(5-fluoro-1,3-thiazol-2-yl)benzenesulfonamide]
464	N#Cc1cc(S(=O)(=O)Nc2ncc(F)s2)ccc1Oc1cc(C(F)(F)F)ccc1Cl [Example 136, 4-[2-chloro-5-(trifluoromethyl)phenoxy]-3-cyano-N-(5-fluoro-1,3-thiazol-2-yl)benzenesulfonamide]
737	N#Cc1cc(S(=O)(=O)Nc2ncc(F)s2)ccc1Oc1ccc(Cl)c(C(F)(F)F)c1 [Example 141, 4-[4-chloro-3-(trifluoromethyl)phenoxy]-3-cyano-N-(5-fluoro-1,3-thiazol-2-yl)benzenesulfonamide]
118	N#Cc1cc(S(=O)(=O)Nc2cscn2)ccc1Oc1ccc(Cl)cc1OC(F)F [Example 148, 4-[4-chloro-2-(difluoromethoxy)phenoxy]-3-cyano-N-(1,3-thiazol-4-yl)benzenesulfonamide]
494	O=S(=O)(Nc1cscn1)c1cc(Cl)c(Oc2ccc(F)cc2I)cc1F [Example 149, 5-chloro-2-fluoro-4-(4-fluoro-2-iodophenoxy)-N-(1,3-thiazol-4-yl)benzenesulfonamide]
2510	COc1cc(Cl)ccc1Oc1cc(F)c(S(=O)(=O)Nc2nncs2)cc1Cl [Example 150, 5-chloro-4-(4-chloro-2-methoxyphenoxy)-2-fluoro-N-(1,3,4-thiadiazol-2-yl)benzenesulfonamide]
508	O=S(=O)(Nc1ncns1)c1cc(Cl)c(Oc2ccc(Cl)cc2OC(F)(F)F)cc1F [Example 151, 5-chloro-4-[4-chloro-2-(trifluoromethoxy)phenoxy]-2-fluoro-N-(1,2,4-thiadiazol-5-yl)benzenesulfonamide]
> 10000	O=S(=O)(Nc1nncs1)c1cc(Cl)c(Oc2ccc(Cl)cc2OC(F)F)cc1F [Example 152, 5-chloro-4-[4-chloro-2-(difluoromethoxy)phenoxy]-2-fluoro-N-(1,3,4-thiadiazol-2-yl)benzenesulfonamide]
1630	COc1cc(Cl)ccc1Oc1cc(F)c(S(=O)(=O)Nc2ncns2)cc1Cl [Example 154, 5-chloro-4-(4-chloro-2-methoxyphenoxy)-2-fluoro-N-(1,2,4-thiadiazol-5-yl)benzenesulfonamide]
> 7250	N#Cc1ccc(Oc2cc(F)c(S(=O)(=O)Nc3ncns3)cc2Cl)c(OC(F)F)c1 [Example 155, 5-chloro-4-[4-cyano-2-(difluoromethoxy)phenoxy]-2-fluoro-N-(1,2,4-thiadiazol-5-yl)benzenesulfonamide diethylamine salt]
3430	N#Cc1ccc(OC(F)F)c(Oc2cc(F)c(S(=O)(=O)Nc3ncns3)cc2Cl)c1 [Example 156, 5-chloro-4-[5-cyano-2-(difluoromethoxy)phenoxy]-2-fluoro-N-(1,2,4-thiadiazol-5-yl)benzenesulfonamide diethylamine salt]
2880	COc1cc(Cl)cc(Cl)c1Oc1cc(F)c(S(=O)(=O)Nc2nncs2)cc1Cl [Example 157, 5-chloro-4-(2,4-dichloro-6-methoxyphenoxy)-2-fluoro-N-(1,3,4-thiadiazol-2-yl)benzenesulfonamide diethylamine salt]
3210	O=S(=O)(Nc1cscn1)c1cc(Cl)c(Oc2cc(Cl)ccc2OC(F)F)cc1F [Example 158, 5-chloro-4-[5-chloro-2-(difluoromethoxy)phenoxy]-2-fluoro-N-(1,3-thiazol-4-yl)benzenesulfonamide]
499	O=S(=O)(Nc1cscn1)c1cc(Cl)c(Oc2ccc(Cl)cc2OC(F)F)cc1F [Example 159, 5-chloro-4-[4-chloro-2-(difluoromethoxy)phenoxy]-2-fluoro-N-(1,3-thiazol-4-yl)benzenesulfonamide]
347	O=S(=O)(Nc1cscn1)c1cc(Cl)c(Oc2cc(C(F)(F)F)ccc2I)cc1F [Example 160, 5-chloro-2-fluoro-4-[2-iodo-5-(trifluoromethyl)phenoxy]-N-(1,3-thiazol-4-yl)benzene-sulfonamide]
